Data on 10 compounds can be found in ChEMBL document CHEMBL5465560, “Selectivity Literature for EUbOPEN Chemogenomic Library” (2024).

Assay [1] concerns the target Mitogen-activated protein kinase kinase kinase 9 (Homo sapiens) (UniProt P80192). Nature of the assay: Selectivity interaction (ProQinase) EUB0000171b MAP3K9.
The target of assay [2] is T1, Cyclin-dependent kinase-like 2 (Homo sapiens) (UniProt Q92772).
T1 sequence (whole entry): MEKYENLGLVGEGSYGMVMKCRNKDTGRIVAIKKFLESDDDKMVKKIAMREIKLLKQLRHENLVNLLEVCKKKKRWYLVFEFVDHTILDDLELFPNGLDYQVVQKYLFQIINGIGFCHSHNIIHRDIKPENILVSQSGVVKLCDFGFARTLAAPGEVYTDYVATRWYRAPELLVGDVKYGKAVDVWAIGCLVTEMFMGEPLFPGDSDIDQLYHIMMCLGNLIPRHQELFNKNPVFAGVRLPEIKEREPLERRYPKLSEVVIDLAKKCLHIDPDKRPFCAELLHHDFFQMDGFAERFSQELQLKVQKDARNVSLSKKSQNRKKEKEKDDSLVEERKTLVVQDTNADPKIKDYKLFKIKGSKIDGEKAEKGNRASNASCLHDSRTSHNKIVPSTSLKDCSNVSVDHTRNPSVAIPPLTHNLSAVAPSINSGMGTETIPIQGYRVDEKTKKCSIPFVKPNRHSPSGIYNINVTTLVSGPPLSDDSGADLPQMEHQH
The settings on record: at 10 µM.

The target in assay [3] is T2, Membrane-associated tyrosine- and threonine-specific cdc2-inhibitory kinase (Homo sapiens) (UniProt Q99640).
T2 sequence (whole entry): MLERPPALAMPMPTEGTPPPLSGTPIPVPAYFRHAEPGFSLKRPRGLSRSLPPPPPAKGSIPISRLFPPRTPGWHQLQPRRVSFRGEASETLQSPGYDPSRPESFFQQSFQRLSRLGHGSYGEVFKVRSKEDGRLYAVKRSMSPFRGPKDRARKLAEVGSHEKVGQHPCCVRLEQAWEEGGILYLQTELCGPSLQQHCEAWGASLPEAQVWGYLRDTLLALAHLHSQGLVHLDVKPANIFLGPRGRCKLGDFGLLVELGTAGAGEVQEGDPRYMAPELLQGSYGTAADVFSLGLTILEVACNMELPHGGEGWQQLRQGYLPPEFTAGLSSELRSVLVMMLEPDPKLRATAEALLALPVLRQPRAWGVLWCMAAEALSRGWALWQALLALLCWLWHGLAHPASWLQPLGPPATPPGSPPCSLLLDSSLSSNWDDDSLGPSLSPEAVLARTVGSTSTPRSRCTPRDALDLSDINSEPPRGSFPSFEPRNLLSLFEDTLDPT
Briefly: Selectivity interaction (Kinase panel (DSF assay)) EUB0001558a PKMYT1. (Differential scanning fluorimetry follows unfolding on heating by fluorescence.)

For assay [4], the target named is Casein kinase II subunit alpha' (Homo sapiens) (UniProt P19784). Nature of the assay: Selectivity interaction (Ambit KINOMEscan and KiNATiv profiling in Jurkat cells) EUB0000090b CSNK2A2. The assay is classed as cell-based. The following applies: at 1 µM.
Assay [5] concerns Mast/stem cell growth factor receptor Kit (Homo sapiens), P10721 [V559D]. The settings on record: at 10 µM.
Chain of Mast/stem cell growth factor receptor Kit (Homo sapiens), P10721 [V559D] (P10721 whole entry V559D): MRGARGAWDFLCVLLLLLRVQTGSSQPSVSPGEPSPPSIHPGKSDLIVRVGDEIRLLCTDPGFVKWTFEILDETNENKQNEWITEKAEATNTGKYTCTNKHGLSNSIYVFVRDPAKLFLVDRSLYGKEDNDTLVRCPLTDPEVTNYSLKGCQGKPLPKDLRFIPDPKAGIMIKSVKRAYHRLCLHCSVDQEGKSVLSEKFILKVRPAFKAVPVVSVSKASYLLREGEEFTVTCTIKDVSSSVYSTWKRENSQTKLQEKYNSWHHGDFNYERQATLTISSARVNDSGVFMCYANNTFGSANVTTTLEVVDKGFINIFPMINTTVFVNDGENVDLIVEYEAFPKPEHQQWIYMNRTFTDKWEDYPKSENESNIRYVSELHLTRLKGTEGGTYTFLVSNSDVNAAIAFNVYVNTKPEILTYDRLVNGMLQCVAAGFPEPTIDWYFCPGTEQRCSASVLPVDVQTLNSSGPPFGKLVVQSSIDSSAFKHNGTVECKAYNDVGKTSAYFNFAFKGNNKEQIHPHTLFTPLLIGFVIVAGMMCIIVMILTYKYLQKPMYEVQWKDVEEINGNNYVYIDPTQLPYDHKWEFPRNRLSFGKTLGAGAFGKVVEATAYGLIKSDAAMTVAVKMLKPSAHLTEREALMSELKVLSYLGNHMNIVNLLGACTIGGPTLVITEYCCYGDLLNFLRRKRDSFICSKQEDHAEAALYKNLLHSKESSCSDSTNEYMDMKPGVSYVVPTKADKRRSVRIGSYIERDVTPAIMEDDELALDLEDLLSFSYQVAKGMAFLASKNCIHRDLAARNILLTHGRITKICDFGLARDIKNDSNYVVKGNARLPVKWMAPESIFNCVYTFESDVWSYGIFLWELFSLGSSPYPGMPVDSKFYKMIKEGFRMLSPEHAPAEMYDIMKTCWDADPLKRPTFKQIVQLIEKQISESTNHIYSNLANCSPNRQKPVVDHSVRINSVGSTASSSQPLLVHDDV
For assay [6], the target named is Serine/threonine-protein kinase 33 (Homo sapiens) (UniProt Q9BYT3). Briefly: Selectivity interaction (KinomeScan (DiscoverX)) EUB0001079a STK33. The settings on record: at 1 µM.
Chain of Serine/threonine-protein kinase 33 (Homo sapiens) (Q9BYT3 whole entry, looked up): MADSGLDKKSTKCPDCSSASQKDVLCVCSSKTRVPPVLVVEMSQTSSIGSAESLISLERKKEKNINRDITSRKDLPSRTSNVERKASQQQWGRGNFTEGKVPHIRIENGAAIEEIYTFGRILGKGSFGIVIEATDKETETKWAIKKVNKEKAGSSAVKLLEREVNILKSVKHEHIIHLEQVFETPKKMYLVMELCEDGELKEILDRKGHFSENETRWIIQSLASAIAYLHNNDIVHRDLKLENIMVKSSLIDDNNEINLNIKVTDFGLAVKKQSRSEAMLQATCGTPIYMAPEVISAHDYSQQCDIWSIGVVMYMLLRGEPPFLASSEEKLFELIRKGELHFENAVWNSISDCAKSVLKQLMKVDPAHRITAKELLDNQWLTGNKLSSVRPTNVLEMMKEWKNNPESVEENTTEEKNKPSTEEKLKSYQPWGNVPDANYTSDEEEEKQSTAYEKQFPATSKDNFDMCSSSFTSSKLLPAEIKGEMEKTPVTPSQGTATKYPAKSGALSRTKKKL
Assay [7] addresses T3, cAMP-dependent protein kinase catalytic subunit PRKX (Homo sapiens) (UniProt P51817).
T3 sequence (whole entry): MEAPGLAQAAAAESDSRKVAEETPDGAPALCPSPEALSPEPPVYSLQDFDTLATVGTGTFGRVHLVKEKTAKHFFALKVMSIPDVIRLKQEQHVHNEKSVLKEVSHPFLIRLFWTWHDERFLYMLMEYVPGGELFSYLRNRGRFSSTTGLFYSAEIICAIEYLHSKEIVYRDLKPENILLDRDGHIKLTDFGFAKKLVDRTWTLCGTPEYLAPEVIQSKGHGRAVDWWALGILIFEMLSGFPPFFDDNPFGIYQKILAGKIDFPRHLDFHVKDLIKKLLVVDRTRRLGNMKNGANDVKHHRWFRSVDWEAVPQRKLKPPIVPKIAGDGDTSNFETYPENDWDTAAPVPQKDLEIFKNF
Briefly: Selectivity interaction (KinomeScan (DiscoverX)) EUB0001049a PRKX. The settings on record: at 1 µM.

Assay [8] deals with CREB-binding protein (Homo sapiens, UniProt Q92793). Nature of the assay: Selectivity interaction (Bromodomain panel (DSF asssay)) EUB0000270b CREBBP.
Chain of CREB-binding protein (Q92793 2-2442 limits assumed): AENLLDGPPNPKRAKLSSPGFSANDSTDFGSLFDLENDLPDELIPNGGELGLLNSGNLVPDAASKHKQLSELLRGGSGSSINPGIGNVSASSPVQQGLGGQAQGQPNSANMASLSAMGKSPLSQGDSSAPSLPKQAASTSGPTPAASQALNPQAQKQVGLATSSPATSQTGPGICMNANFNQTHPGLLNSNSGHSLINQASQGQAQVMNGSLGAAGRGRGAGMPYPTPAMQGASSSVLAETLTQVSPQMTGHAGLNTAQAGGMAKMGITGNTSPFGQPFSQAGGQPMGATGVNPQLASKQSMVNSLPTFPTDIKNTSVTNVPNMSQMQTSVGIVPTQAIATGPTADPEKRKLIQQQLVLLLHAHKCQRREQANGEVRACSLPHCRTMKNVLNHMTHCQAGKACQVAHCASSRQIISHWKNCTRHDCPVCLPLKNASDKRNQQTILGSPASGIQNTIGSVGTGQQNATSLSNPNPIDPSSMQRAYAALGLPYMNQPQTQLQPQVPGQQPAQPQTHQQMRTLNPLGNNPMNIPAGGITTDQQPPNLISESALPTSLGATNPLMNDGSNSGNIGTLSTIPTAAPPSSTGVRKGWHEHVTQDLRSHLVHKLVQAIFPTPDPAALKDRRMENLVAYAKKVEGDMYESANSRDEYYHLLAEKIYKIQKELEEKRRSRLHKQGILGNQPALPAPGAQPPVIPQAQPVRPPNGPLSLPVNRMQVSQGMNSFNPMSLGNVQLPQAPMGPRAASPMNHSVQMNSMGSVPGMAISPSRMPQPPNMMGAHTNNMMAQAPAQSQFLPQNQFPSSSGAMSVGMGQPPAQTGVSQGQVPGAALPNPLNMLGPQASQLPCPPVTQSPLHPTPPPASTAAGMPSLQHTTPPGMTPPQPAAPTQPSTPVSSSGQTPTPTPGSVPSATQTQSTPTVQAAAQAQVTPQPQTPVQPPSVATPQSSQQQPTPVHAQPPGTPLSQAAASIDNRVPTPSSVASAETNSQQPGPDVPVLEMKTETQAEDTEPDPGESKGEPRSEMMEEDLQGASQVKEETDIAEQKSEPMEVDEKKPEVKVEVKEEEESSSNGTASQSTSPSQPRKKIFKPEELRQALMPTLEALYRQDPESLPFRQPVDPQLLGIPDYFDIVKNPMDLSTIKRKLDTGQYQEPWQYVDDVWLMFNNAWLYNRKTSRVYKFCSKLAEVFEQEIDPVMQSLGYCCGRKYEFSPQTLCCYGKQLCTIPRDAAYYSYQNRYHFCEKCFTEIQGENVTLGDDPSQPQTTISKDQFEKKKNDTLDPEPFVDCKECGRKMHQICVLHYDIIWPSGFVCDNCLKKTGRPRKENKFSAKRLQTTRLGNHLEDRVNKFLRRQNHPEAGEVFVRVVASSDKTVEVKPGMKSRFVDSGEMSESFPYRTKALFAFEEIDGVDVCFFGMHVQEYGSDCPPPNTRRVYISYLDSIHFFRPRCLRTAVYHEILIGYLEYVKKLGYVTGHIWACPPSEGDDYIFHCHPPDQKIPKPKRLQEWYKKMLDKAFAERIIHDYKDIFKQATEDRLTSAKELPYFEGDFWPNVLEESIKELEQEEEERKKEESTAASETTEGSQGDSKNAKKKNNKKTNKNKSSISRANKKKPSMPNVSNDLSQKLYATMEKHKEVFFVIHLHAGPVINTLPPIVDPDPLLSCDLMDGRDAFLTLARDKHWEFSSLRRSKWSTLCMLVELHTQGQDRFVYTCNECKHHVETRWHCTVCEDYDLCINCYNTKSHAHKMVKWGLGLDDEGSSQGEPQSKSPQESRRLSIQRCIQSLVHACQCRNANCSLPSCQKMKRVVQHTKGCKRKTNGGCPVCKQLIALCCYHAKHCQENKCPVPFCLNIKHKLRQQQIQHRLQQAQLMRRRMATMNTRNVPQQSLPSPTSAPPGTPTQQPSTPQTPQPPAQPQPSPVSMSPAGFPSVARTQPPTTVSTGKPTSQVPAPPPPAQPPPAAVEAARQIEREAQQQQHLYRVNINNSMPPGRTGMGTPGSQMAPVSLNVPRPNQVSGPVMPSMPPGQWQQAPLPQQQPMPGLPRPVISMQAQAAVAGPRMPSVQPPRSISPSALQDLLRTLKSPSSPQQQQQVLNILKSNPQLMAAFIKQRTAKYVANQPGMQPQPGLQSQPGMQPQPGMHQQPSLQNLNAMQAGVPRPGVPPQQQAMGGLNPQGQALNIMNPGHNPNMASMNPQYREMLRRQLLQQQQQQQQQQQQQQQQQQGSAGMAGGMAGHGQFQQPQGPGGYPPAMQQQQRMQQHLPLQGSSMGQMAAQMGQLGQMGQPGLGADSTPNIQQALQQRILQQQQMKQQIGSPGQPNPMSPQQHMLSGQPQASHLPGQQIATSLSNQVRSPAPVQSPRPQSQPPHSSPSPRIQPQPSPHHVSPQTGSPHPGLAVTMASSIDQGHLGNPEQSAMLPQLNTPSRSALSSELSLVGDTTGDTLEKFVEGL
Assay [9] concerns the target T4, Tyrosine-protein kinase Tec (Homo sapiens) (UniProt P42680).
T4 sequence (whole entry): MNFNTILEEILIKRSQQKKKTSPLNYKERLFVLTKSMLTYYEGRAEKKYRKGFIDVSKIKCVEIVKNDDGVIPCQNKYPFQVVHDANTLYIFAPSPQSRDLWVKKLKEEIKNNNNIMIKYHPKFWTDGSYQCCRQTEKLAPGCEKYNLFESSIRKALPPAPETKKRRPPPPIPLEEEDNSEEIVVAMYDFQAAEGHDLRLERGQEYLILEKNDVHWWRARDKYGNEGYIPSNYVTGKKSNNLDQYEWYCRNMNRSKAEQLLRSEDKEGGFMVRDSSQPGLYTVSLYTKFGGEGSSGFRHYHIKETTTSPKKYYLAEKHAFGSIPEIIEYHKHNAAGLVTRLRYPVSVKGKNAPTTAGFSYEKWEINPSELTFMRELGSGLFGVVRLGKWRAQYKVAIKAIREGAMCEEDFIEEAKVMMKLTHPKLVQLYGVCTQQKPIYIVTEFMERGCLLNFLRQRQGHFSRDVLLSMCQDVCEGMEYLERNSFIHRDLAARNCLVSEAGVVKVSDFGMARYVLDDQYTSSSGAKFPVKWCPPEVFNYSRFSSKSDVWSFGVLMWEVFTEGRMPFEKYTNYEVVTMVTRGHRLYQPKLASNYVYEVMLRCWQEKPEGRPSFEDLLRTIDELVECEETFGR
Nature of the assay: Selectivity interaction (ActivX KiNativ screen (kinase selectivity in THP-1 cell lysates)) EUB0000639a TEC. In kind it is subcellular. The settings on record: lysate, at 0.2 µM.

Assay [10] has as its target Ribosomal protein S6 kinase alpha-4 (Homo sapiens) (UniProt O75676). Nature of the assay: Selectivity interaction (Kinase panel (KiNativ target engagement assay in Jurkat cells)) EUB0001635a RPS6KA4. The following applies: Selectivity number of off-targets 0.0, Selectivity number of targets 233.0, Source Knowledge https://www.sciencedirect.com/science/article/pii/S2451945619300674?via%3Dihub, at 1 µM. The assay is classed as cell-based.

Chain of Mitogen-activated protein kinase kinase kinase 9 (Homo sapiens) (P80192 whole entry, looked up): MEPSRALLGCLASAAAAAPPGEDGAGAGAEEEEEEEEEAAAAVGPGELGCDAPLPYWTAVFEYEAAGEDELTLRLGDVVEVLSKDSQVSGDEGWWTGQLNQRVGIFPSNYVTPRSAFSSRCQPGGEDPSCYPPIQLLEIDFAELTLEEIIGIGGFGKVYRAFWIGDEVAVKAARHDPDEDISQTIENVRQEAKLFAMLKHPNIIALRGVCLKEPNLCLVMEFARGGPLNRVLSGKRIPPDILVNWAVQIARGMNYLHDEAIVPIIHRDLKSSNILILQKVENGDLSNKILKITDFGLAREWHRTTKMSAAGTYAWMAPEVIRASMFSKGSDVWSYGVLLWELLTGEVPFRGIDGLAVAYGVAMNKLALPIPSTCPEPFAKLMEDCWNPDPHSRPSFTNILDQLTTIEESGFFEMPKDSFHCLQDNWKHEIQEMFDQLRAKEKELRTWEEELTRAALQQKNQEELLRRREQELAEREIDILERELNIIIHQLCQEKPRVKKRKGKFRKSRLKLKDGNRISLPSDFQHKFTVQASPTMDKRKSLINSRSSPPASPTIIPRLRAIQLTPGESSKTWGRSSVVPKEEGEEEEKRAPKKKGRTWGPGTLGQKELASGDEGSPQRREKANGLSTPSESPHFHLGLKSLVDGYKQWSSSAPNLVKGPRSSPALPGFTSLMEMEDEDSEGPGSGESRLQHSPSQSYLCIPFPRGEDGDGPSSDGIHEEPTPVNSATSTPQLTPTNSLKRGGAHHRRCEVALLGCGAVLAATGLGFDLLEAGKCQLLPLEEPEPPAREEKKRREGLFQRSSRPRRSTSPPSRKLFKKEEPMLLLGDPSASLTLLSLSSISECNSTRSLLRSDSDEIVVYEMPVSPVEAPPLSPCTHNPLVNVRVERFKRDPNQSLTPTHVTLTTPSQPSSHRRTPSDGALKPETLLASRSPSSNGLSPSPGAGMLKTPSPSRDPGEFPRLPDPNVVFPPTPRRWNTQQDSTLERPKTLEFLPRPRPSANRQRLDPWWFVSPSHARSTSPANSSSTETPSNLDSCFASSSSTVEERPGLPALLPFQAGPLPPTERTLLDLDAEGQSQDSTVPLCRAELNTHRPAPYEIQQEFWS

Take `C=CC(=O)Nc1cccc(C(=O)Nc2ccc(Nc3cc(-c4[nH]c(SC)nc4C)ccn3)cc2)c1`: the % of control in assay [1] (at 1 µM) was determined as 80%; in assay [1] (at 5 µM), 45%.
As for `Cc1cc([C@@H](C)Nc2ccccc2C(=O)O)c2nc(N3CCOCC3)cc(=O)n2c1` [AZD-6482], in assay [2], the % of control was 91%.
`CC(C)(O)[C@H](F)CN1Cc2cc(NC(=O)c3cnn4cccnc34)c(N3CCOCC3)cc2C1=O` displayed a dTM in assay [3] of 0.5 K.
In the case of `CN(C)C/C=C/C(=O)Nc1ccc(C(=O)N2CCCC(Nc3ncc(Cl)c(-c4c[nH]c5ccccc45)n3)C2)cc1` (stereo unspecified), the % of control in assay [4] was 89%.
With `CCN(CC)CCCCNc1ncc2cc(-c3cc(OC)cc(OC)c3)c(NC(=O)NC(C)(C)C)nc2n1`, in assay [5], the % of control came out at 100%.
In [6], `Nc1cnc(N2CCc3cc(S(=O)(=O)Nc4c(F)cc(Cl)cc4F)cc(N4CCCC4=O)c32)nc1` [TP-020n] came in with a % of control of 80%.
In assay [7], `COc1cc(Nc2nc(C)cc(-c3cnn4nc(OC)ccc34)n2)cc(C(F)(F)F)c1` yielded a % of control of 87%.
As for `Cc1cc(CN)cc(C)c1-c1ncn(C)c1-c1cncn1C`, in assay [8], the dTM was -1.89 K.
For the compound `CC[C@@H]1[C@H](F)C(=O)N[C@@H]1COc1nccc2cc(C(N)=O)c(OC)cc12` [ZIMLOVISERTIB], the % of inhibition in assay [9] is -52.3%.
Regarding `C=CC(=O)Nc1ccc(C(=O)Nc2[nH]nc3c2CN(C(=O)N[C@H](CN(C)C)c2ccccc2)C3(C)C)cc1`, in [10], the % of engagement is -6.3%.
